Data from paper PMC7481406, “Bifunctional supramolecular nanofiber inhibits atherosclerosis by enhancing plaque stability and anti-inflammation in apoE^-/- mice” (Theranostics, 2020).
Where a SMILES comes first, the peptide text is derived from it. [ ]: non-standard residue; d: D form. The star is where a group is joined. Naproxen = COc1ccc2cc([C@H](C)C(=O)*)ccc2c1; Acetyl(2-naphthyl) = O=C(Cc1ccc2ccccc2c1)*

Tests used:
[1] = Body weight and serum lipid profile; format: in vivo, mouse; conditions: for HDL-C / LDL-C / TG (triglyceride) / Total-C (serum total cholesterol): serum
Description: (§1) All animal studies were approved by the Animal Ethics Committee of Nankai University and followed the Tianjin Committee of Use and Care of Laboratory Animals. Male apoE^‑/‑ mice (~22 g bodyweight, ~8 weeks old) were purchased from the Beijing Vital River Laboratory Animal Technology Co., Ltd, which were used to set up the atherosclerotic model, as previously described. ApoE^-/- mice were randomly assigned into six groups (15 per group) and fed with HFD (21% fat plus 0.5% cholesterol; Mediscience, Ltd, Jiangsu, China; Cat No. MD12015A) for 16 weeks. […] At the end of the experiment, all mice were euthanatized by an overdose of 2,2,2-tribromoethanol (640 mg/kg, IP injection), followed by collection of aortas, blood, and peritoneal macrophages. Serum was prepared to determine levels of TNF-α, IL-1β and IL-6 by ELISA kits purchased from ABclonal, Inc. (Wuhan, China). The en face aortas were used to prepare aortic root cross sections followed by determination of en face and sinus lesions with Oil Red O staining. All the images were obtained with a microscope and quantified lesion areas in en face aorta by a computer-assisted image analysis protocol (Photoshop CS6). Necrotic core area, fibrous cap area, expression of MOMA-2, CD68, and α-SMA protein in lesion were determined by H&E and immunofluorescent staining with aortic root cross sections.

[2] = target: recombinant human Insulin-like Growth Factor-I Receptor (rhIGF-1R) (Homo sapiens, UniProt P08069); assay: Microscale thermophoresis binding to rhIGF-1R; conditions: for dissociated constant (KD) with rhIGF-1R: microscale thermophoresis, NT-647 labelled rhIGF-1R, PBS with 0.05% Tween 20 pH 7.4, compound 0.054 nM to 2 μM
Chain of recombinant human Insulin-like Growth Factor-I Receptor (rhIGF-1R) (P08069 31-1367): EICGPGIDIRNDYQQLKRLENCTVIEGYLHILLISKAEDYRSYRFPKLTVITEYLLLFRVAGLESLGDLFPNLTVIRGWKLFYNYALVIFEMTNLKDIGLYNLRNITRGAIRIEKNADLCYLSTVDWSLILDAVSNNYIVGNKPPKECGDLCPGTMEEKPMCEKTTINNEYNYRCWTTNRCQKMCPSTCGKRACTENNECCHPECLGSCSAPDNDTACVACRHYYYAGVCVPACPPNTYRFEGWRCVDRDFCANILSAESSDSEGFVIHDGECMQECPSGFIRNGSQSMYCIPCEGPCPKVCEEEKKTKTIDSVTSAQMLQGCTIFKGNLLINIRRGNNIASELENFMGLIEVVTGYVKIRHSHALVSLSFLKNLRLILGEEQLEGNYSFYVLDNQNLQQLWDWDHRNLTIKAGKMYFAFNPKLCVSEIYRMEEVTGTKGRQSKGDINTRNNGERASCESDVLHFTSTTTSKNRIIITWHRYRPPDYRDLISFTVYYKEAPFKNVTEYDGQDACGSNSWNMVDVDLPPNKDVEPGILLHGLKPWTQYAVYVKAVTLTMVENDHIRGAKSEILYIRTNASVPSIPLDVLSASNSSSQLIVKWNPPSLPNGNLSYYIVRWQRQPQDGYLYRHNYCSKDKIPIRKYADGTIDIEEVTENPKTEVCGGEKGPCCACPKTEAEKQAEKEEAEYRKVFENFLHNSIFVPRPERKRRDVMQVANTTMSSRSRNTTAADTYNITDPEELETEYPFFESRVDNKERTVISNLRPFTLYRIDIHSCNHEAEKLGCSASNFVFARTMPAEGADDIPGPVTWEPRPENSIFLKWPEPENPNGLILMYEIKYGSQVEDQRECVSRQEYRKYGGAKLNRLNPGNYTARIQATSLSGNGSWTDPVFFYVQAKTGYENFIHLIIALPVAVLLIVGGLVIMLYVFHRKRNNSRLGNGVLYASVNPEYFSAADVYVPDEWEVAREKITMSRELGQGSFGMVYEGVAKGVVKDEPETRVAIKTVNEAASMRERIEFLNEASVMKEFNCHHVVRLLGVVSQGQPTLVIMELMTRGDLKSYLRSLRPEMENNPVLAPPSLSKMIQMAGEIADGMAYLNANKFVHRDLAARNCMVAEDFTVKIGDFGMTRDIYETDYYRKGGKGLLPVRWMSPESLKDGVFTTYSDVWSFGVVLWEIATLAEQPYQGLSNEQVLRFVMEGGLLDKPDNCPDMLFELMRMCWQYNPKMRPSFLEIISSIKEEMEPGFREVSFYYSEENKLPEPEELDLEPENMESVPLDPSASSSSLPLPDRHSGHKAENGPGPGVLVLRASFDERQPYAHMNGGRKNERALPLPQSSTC
Description: (§2) The transparency of the prepared hydrogel in the visible light range of 380 nm-780 nm is detected by UV-Vis spectroscopy (Lambda 35 UV/Vis Spectrometer, Perkin-Elmer). […] Therefore, we conducted microscale thermophoresis experiments to determine their binding affinity to recombinant human Insulin-like Growth Factor-I Receptor (rhIGF-1R).
rhIGF-1R was labeled with the fluorescent dye NT-647 using a Monolith NT™ Protein Labelling Kit (cysteine-reactive) (NanoTemper Technologies, Germany). PBS buffer containing 0.05% Tween 20 (pH 7.4) was used as the assay buffer. For the interaction experiments of fluorescent proteins with Compound 1, 2, 3or 4, the concentration of labeled proteins were kept constant, while the concentration of Compound 1, 2, 3or 4 varied from 0.054 nM to 2 μM. Then, the solution of fluorescent proteins was mixed with solutions containing different concentrations of Compound 1, 2, 3or 4 at 1:1 volume ratio. After a short incubation time, the samples were loaded into MST NT.115 standard glass capillaries and the analysis was performed using the Monolith NT.115 system (NanoTemper Technologies, Germany). The KD value was calculated using the NanoTemper software package.

peritoneal macrophages = assay: Macrophage polarization and LPS-induced inflammation in vitro; format: cell-based, mouse
Protocol: (§3) Human aortic smooth muscle cells (HASMCs) were cultured in a completed DMEM F12 medium (10% fetal bovine serum, 50 μg/mL penicillin, and 50 μg/mL streptomycin). Peritoneal macrophages were cultured in complete RPMI1640 medium (10% fetal bovine serum, 50 μg/mL penicillin, 50 μg/mL streptomycin and 2 mM glutamine). HASMCs or peritoneal macrophages were seeded on a 6-well plate at the density of 3×10^5 cells per well before treatment. […] After treatment, total cellular proteins were extracted from peritoneal macrophages for determination of ABCA1 and ABCG1 by western blot, as previously described. Expression of CD68, SM22α, iNOS, CD206, TNF-α, IL-6, and IL-1β mRNA in HASMCs or macrophages was determined by quantitative real-time polymerase chain reaction (qRT-PCR) with total RNA extracted from cells and the primers listed in Table 1 and normalized to GAPDH mRNA levels in the corresponding samples.

apoE-/- mice = assay: Inflammation and macrophage phenotype in vivo (aortic root immunofluorescence, serum ELISA, aorta qRT-PCR); set-up: species or system mouse
Description: as §1

[3] = tested on: ABCA1 and ABCG1 in peritoneal macrophages; assay: ABCA1 and ABCG1 expression by western blot; format: cell-based, mouse; conditions: 10 nM overnight, versus GAPDH, n=5
Protocol: as §3

[4] = tested on: atherosclerotic lesions in apoE-/- mice; assay: Atherosclerotic lesion formation, Oil Red O staining; format: in vivo, mouse; conditions: high-fat diet 16 weeks, s.c. 100 μL of 1 μM weekly, n=15
Protocol: Male apoE^‑/‑ mice (~22 g bodyweight, ~8 weeks old) were purchased from the Beijing Vital River Laboratory Animal Technology Co., Ltd, which were used to set up the atherosclerotic model, as previously described[66]. ApoE^-/- mice were randomly assigned into six groups (15 per group) and fed with HFD (21% fat plus 0.5% cholesterol; Mediscience, Ltd, Jiangsu, China; Cat No. MD12015A) for 16 weeks. ApoE^-/- mice in the different groups were subcutaneously injected with either saline (100 µL, n=15), IGF-1 protein (1 μM, 100 μL, n=15), H1 (1 μM, 100 μL, n=15), H2 (1 μM, 100 μL, n=15), H3 (1 μM, 100 μL, n=15) or H4 (1 μM, 100 μL, n=15) weekly. At the end of the experiment, all mice were euthanatized by an overdose of 2,2,2-tribromoethanol (640 mg/kg, IP injection), followed by collection of aortas, blood, and peritoneal macrophages. […] The en face aortas were used to prepare aortic root cross sections followed by determination of en face and sinus lesions with Oil Red O staining. All the images were obtained with a microscope and quantified lesion areas in en face aorta by a computer-assisted image analysis protocol (Photoshop CS6).

peritoneal macrophage = assay: Cholesterol efflux of peritoneal macrophage; format: cell-based, mouse; conditions: n=5, Figures S14 and S15B
Protocol: page 8: Figure S14. Cholesterol efflux of peritoneal macrophage were assessed after treatment as indicated, n=5. […] Figure S15. Effects of Npx and IGF-1 mimetic peptide on inflammation and cholesterol efflux. (A) qRT-PCR analysis of TNFα and IL-1β in macrophage after indicated treatment, n=5. (B) Cholesterol efflux of peritoneal macrophage were assessed after treatment as indicated, n=5. […]

HASMCs = assay: VSMC switch to macrophage-like phenotype (αSMA immunofluorescence, CD68 and SM22α qRT-PCR); format: cell-based, human; conditions: n=5
Protocol: as §3

[5] = tested on: peritoneal macrophages from apoE-/- mice; assay: Foam cell formation, Oil Red O staining after ox-LDL; format: cell-based, mouse; conditions: same molar concentration, after exposure to ox-LDL, >10 lipid droplets per cell, n=5
Protocol: Human aortic smooth muscle cells (HASMCs) were cultured in a completed DMEM F12 medium (10% fetal bovine serum, 50 μg/mL penicillin, and 50 μg/mL streptomycin). Peritoneal macrophages were cultured in complete RPMI1640 medium (10% fetal bovine serum, 50 μg/mL penicillin, 50 μg/mL streptomycin and 2 mM glutamine). HASMCs or peritoneal macrophages were seeded on a 6-well plate at the density of 3×10^5 cells per well before treatment. […] To assess foam cell formation in vitro, peritoneal macrophages collected from apoE^-/- mice were plated on cover slips in 12-well plates. Subsequently, induction and determination of foam cells was conducted as previously described.

receptor of IGF-1 = conditions: earlier report of the same authors; cited from earlier work
Description: Natural and recombinant human IGF-1 proteins (rhIGF-1) are limited in short half-lifes in biological systems and poor tissue retention. […] The C domain of […] in IGF-1 regulates its receptor binding and directly affects the biological activity of IGF-1. Nishida et al. reported that the C-domain of IGF-1 can promote the healing of corneal epithelial wounds. They screened a series of 12-amino acids of GST fusion protein and obtained mutants whose various ...

[6] = TEM of nanofibers in hydrogels; format: physicochemical; conditions: hydrogel in PBS, 0.5 wt%
[7] = Transparency of hydrogels by UV-Vis spectroscopy; format: physicochemical; conditions: visible light range 380 nm-780 nm, hydrogel in PBS pH 7.4, 0.5 wt%
Description: as §2

[8] = Rheometer mechanical properties of hydrogels; format: physicochemical; conditions: hydrogel 1.0 wt%
Protocol: We then used a rheometer to characterize the mechanical properties of the hydrogels. […] The storage modulus (G') of the four hydrogels was approximately an order of magnitude higher than their loss modulus (G''), which indicated the formation of true gels. ApoE^-/- mice were then subcutaneously (s.c.) injected with 100 μL of the different hydrogels or natural IGF-1 protein solution per week and simultaneously fed a high-fat diet for 16 weeks. Atherosclerotic lesion formation was assessed after 16 weeks.

[9] = male apoE-/- mice, HFD 16 weeks, s.c. weekly, mean ± SD, n=15
[10] = double immunofluorescence staining with MOMA2, n=15
[11] = peritoneal macrophages, LPS 100 ng·mL^-1 2 h then 10 nM overnight, immunofluorescent staining, versus control, n=5
[12] = 10 nM with ox-LDL 50 µg·mL^-1 overnight, qRT-PCR, versus ox-LDL-treated cells

Question: With `COc1ccc2cc([C@H](C)C(=O)N[C@H](Cc3ccccc3)C(=O)N[C@H](Cc3ccccc3)C(=O)NCC(=O)N[C@@H](CO)C(=O)N[C@@H](CO)C(=O)N[C@@H](CO)C(=O)N[C@@H](CCCNC(=N)N)C(=O)O)ccc2c1` [Compound H1, Npx-^DF^DFGSSSR] (Naproxen-[dF][dF]GSSSR-OH) as the compound, how does the BW ([1]; mouse, in vivo, sc, SD) read?
Answer: Its BW is 26.49 ± 2.14 g.

Question: For `COc1ccc2cc([C@H](C)C(=O)N[C@@H](Cc3ccccc3)C(=O)N[C@@H](Cc3ccccc3)C(=O)NCC(=O)N[C@@H](CO)C(=O)N[C@@H](CO)C(=O)N[C@@H](CO)C(=O)N[C@@H](CCCNC(=N)N)C(=O)O)ccc2c1` [Compound H2, Npx-FFGSSSR] (Naproxen-FFGSSSR-OH), which BW ([1]; mouse, in vivo, sc, SD) is on record?
Answer: The BW was 25.55 ± 2.31 g.

Question: Which BW [1, 9] does the source give for `N=C(N)NCCC[C@H](NC(=O)[C@H](CO)NC(=O)[C@H](CO)NC(=O)[C@H](CO)NC(=O)CNC(=O)[C@H](Cc1ccccc1)NC(=O)[C@H](Cc1ccccc1)NC(=O)Cc1ccc2ccccc2c1)C(=O)O` [Compound H3, Nap-FFGSSSR] ({Acetyl(2-naphthyl)}-FFGSSSR-OH) here?
Answer: Its BW is 26.79 ± 1.77 g.

Question: And the Kd [2]?
Answer: Its Kd is 230 nM.

Question: With `COc1ccc2cc([C@H](C)C(=O)O)ccc2c1` [Npx, naproxen, reference compound] as the compound, how does the “LPS-induced inflammation, components compared (Figure S15A)” value (peritoneal macrophages; macrophage in presence of LPS, qRT-PCR of TNF and IL-1, n=5) read?
Answer: The value was “partly blocked LPS-induced inflammation”.

Question: With “Insulin-like growth factor (IGF)-1 [IGF-1]” as the compound, how does the “Arg1 expression in aortic root macrophages in vivo” value (apoE-/- mice; [10]) read?
Answer: The value was “induced the expression of Arg1”.

Question: What about the “CCR7 expression in aortic root macrophages in vivo” value (apoE-/- mice; [10]) of the same compound?
Answer: Its value is “inhibited the expression of CCR7”.

Question: And the “expression of proinflammatory cytokines in aortas” value (apoE-/- mice; qRT-PCR of TNF-α and IL-6, n=8)?
Answer: The value was “reduced the expression of these cytokines”.

Question: What about the HDL-C [1, 9] of the same compound?
Answer: Its HDL-C is 2.35 ± 0.89 mM.

Question: And the LDL-C [1, 9]?
Answer: The LDL-C was 4.08 ± 1.42 mM.

Question: What about the “TG (triglyceride)” value [1, 9] of the same compound?
Answer: Its value is 0.51 ± 0.13 mM.

Question: What about the “Total-C (serum total cholesterol)” value [1, 9] of the same compound?
Answer: The value was 15.47 ± 2.76 mM.

Question: And the BW ([1]; mouse, in vivo, sc, SD)?
Answer: Its BW is 25.04 ± 1.83 g.

Question: What about the “Arg1 expression in macrophages in vitro” value (peritoneal macrophages; [11]) of the same compound?
Answer: Its value is “more Arg1”.

Question: What about the “CCR7 expression in macrophages in vitro” value (peritoneal macrophages; [11]) of the same compound?
Answer: Its value is “expressed less CCR7”.

Question: What about the “expression of ABCA1 and ABCG1 in macrophages” value [3] of the same compound?
Answer: The value was “significantly enhanced expression”.

Question: And the “decrease in plaque size at the aortic root” value [4]?
Answer: Its value is ~ 53%.

Question: And the “reduction in lesion area, en face aorta” value [4]?
Answer: The value was ~ 42%.

Question: And the “cholesterol efflux from peritoneal macrophage” value (peritoneal macrophage)?
Answer: Its value is “more effective than Npx”.

Question: And the “α-SMA expression in VSMCs” value (HASMCs; 10 nM overnight, immunofluorescent staining, versus control)?
Answer: The value was “expressed more α-SMA”.

Question: And the “CD68 expression in VSMCs” value (HASMCs; [12])?
Answer: The value was “less CD68”.

Question: And the “SM22α expression in VSMCs” value (HASMCs; [12])?
Answer: The value was “more SM22α”.

Question: What about the “number of foam cells” value [5] of the same compound?
Answer: The value was 22.0%.

Question: For “Nap-FFGGYGSSSRRAPQT [self-assembling peptide reported earlier by the authors]”, which “binding affinity to the receptor of IGF-1” value (receptor of IGF-1) is on record?
Answer: The value was “high binding affinity”.

Question: What does the source list for “Nap-FFGSRSS [Compound H4, control without naproxen and with a scrambled tetrapeptide of SSSR]”?
Answer: diameter of entangled nanofibers [6]: ~17.3 nm; transparency (mean transmittance) of hydrogel [7]: 71.08%; HDL-C [1, 9]: 2.34 ± 0.76 mM; LDL-C [1, 9]: 4.45 ± 1.23 mM; TG (triglyceride) [1, 9]: 0.52 ± 0.08 mM; Total-C (serum total cholesterol) [1, 9]: 16.63 ± 2.05 mM; BW ([1]; mouse, in vivo, sc, SD): 26.81 ± 2.06 g; storage modulus (G') [8]: 100 Pa; number of foam cells [5]: almost no decrease; dissociated constant (KD) with rhIGF-1R [2]: Non KD; dissociated constant (KD) with rhIGF-1R ([2]; listed as Compound 4): no binding at all
